Measurements reported in ChEMBL document CHEMBL4028858, “Structural Biology-Inspired Discovery of Novel KRAS-PDEδ Inhibitors” (J Med Chem, 2017).
Converted amounts (≈) assume the structure as drawn. The source made the active and inactive calls. No cut-off for these calls is given here.

Tests used:
[1] = Aqueous solubility of the compound at 5 mg/ml measured after 24 hrs by HPLC method; type: physicochemical; details: water (aqueous)
CAPAN-1 [2] = assay: Potency index, ratio of deltazinone IC50 to test compound IC50 for KRAS-dependent human Capan1 cells; type: functional
[3] = target: T1, Retinal rod rhodopsin-sensitive cGMP 3',5'-cyclic phosphodiesterase subunit delta (Homo sapiens, UniProt O43924)
T1 sequence (O43924 whole entry): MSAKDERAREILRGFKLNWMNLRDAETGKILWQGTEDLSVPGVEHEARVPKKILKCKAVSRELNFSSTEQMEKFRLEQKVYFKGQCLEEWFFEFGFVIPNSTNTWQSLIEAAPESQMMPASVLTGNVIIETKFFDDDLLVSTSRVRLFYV
Description: Inhibition of Atrovastatin-PEG3-FITC binding to PDEdelta (unknown origin) incubated for 60 mins by fluorescence anisotropy assay

CAPAN-1 [4] = assay: Antiproliferative activity against KRAS-dependent human Capan1 cells after 48 hrs by CCK8 assay
CAPAN-1 [5] = assay: Downregulation of PDEdelta protein expression in KRAS-dependent human Capan1 cells at 25 uM incubated for 2 hrs by immunofluorescence staining-based method; type: functional, cell-based
CAPAN-1 [6] = assay: Induction of apoptosis in KRAS-dependent human Capan1 cells at 50 uM incubated for 48 hrs by Annexin-V FITC/propidium iodide staining-based flow cytometry relative to control; type: functional
CAPAN-1 [7] = assay: Induction of apoptosis in KRAS-dependent human Capan1 cells at 25 uM incubated for 48 hrs by Annexin-V FITC/propidium iodide staining-based flow cytometry relative to control; type: functional
CAPAN-1 [8] = assay: Induction of apoptosis in KRAS-dependent human Capan1 cells incubated for 48 hrs by Annexin-V FITC/propidium iodide staining-based flow cytometry; type: functional, cell-based
[9] = target: T1, Retinal rod rhodopsin-sensitive cGMP 3',5'-cyclic phosphodiesterase subunit delta; details: 1 mM
Description: Binding affinity to PDEdelta (unknown origin) assessed as change in melting temperature at 1 mM by circular dichroism spectroscopy

[10] = target: RAC-alpha serine/threonine-protein kinase (Homo sapiens) (UniProt P31749); assay: […] of EGF-induced AKT phosphorylation at Ser473 in human Capan1 cells at 25 uM after 1 hr by Western blot method; type: cell-based
RAC-alpha serine/threonine-protein kinase (Homo sapiens), sequence (P31749 whole entry): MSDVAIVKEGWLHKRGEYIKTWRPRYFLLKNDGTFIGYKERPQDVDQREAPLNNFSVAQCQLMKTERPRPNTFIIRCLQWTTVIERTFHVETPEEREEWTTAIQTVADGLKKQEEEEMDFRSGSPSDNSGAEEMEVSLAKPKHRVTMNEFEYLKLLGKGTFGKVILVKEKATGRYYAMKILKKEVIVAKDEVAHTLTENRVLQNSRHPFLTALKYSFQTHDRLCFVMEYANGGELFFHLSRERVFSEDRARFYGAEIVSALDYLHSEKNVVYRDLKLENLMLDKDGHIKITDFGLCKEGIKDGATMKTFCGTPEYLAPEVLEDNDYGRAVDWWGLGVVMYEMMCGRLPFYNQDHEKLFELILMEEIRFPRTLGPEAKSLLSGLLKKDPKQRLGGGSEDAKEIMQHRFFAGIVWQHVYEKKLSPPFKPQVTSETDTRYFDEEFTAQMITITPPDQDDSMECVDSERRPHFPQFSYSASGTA

Homo sapiens = organism: Homo sapiens; assay: Effect on EGF-induced ERK phosphorylation at Thr202/Tyr204 in human Capan1 cells at 25 uM after 1 hr by Western blot method
CAPAN-1 [11] = assay: Induction of apoptosis in KRAS-dependent human Capan1 cells at 10 uM incubated for 48 hrs by Annexin-V FITC/propidium iodide staining-based flow cytometry relative to control; type: functional
[12] = target: T1, Retinal rod rhodopsin-sensitive cGMP 3',5'-cyclic phosphodiesterase subunit delta; details: 10 uM
Description: Inhibition of PDEdelta in KRAS-dependent human Capan1 cells assessed as downregulation of EGF-induced AKT phosphorylation at Ser473 at 10 uM incubated for >5 hrs by Western blot method

[13] = target: T1, Retinal rod rhodopsin-sensitive cGMP 3',5'-cyclic phosphodiesterase subunit delta; details: 10 uM; remark: listed apart in the source
Description: Inhibition of PDEdelta in KRAS-dependent human Capan1 cells assessed as downregulation of EGF-induced ERK phosphorylation at Thr202/Thr204 at 10 uM incubated for >5 hrs by Western blot method

[14] = target: T1, Retinal rod rhodopsin-sensitive cGMP 3',5'-cyclic phosphodiesterase subunit delta; details: 10 uM; remark: listed apart in the source
Description: Inhibition of PDEdelta in KRAS-dependent human Capan1 cells assessed as increase in endogenous RAS distribution to endomembranes at 10 uM incubated for 2 hrs by immunofluorescence staining based method

CAPAN-1 [15] = assay: Downregulation of PDEdelta protein expression in KRAS-dependent human Capan1 cells at 10 uM incubated for 2 hrs by immunofluorescence staining-based method; type: functional, cell-based
CAPAN-1 [16] = assay: Antiproliferative activity against KRAS-dependent human Capan1 cells at 100 uM after 48 hrs by CCK8 assay relative to control; type: functional

## O=C1c2ccccc2NC(c2ccccc2F)N1CCCCCCCN1C(=O)c2ccccc2NC1c1ccccc1F (stereo not given)
[1]
  solubility at 24 h: 30.9 µM (≈ 17.9 µg/mL)

## O=C1c2ccccc2NC(c2ccccc2F)N1CCCCCCN1C(=O)c2ccccc2NC1c1ccccc1F (stereo not given)
[1]
  solubility at 24 h: 14 µM (≈ 7.93 µg/mL)

## Cc1ccc(-n2nc3c(=O)n(CCC(=O)N4CCC(N5C(=O)c6ccccc6NC5c5ccccc5F)CC4)nc(C)c3c2C)cc1 (stereo in doubt; (+)-3b)
CAPAN-1 [2]
  Ratio IC50: 4
[3]
  Kd: 0.0006 µM
CAPAN-1 [4]; capan-1
  IC50: 12.4 µM

## O=C1c2ccccc2N[C@@H](c2ccccc2F)N1CCN1CCC(N2C(=O)c3ccccc3N[C@H]2c2ccccc2F)CC1
CAPAN-1 [5]
  Activity: Active
CAPAN-1 [6]
  Activity: 39.3%
CAPAN-1 [7]
  Activity: 23.6%

## Cc1ccc(-n2nc3c(=O)n(CCCN4CCC(N5C(=O)c6ccccc6NC5c5ccccc5F)CC4)nc(C)c3c2C)cc1 (stereo not given)
CAPAN-1 [8]
  Activity: Dose-dependent effect
[1]
  solubility at 24 h: 403 µM (≈ 250 µg/mL)
CAPAN-1 [4]; Homo sapiens, CAPAN-1, 48 h
  IC50: 27.6 µM
CAPAN-1 [7]
  Activity: 50%

## O=C1c2ccccc2N[C@@H](c2ccccc2F)N1c1ccccc1
[9]
  ΔTm: 14 °C

## Cc1ccc(-n2nc3c(=O)n(CCC(=O)N4CCC(N5C(=O)c6ccccc6NC5c5ccccc5F)CC4)nc(C)c3c2C)cc1 (stereo in doubt; 3b) [listing 1 of 2 here]
[1]
  solubility at 24 h: 268 µM (≈ 170 µg/mL)
[3]
  Kd: 0.002 µM
CAPAN-1 [4]; capan-1
  IC50: 18.6 µM
CAPAN-1 [7]
  Activity: 50%

## O=C1c2ccccc2NC(c2ccccc2F)N1CCOc1ccc(N2C(=O)c3ccccc3NC2c2ccccc2F)cc1 (stereo not given)
[1]
  solubility at 24 h: 3.2 µM (≈ 1.93 µg/mL)

## Cc1ccc(-n2nc3c(=O)n(CCCC(=O)NCC(C)c4ccccc4)nc(C)c3c2C)cc1 (stereo not given)
[10]
  Activity: Active
Homo sapiens
  Activity: inactive
CAPAN-1 [4]; Homo sapiens, CAPAN-1, 48 h
  IC50: 56.9 µM
CAPAN-1 [11]
  Activity: 10%

## Cc1ccc(-n2nc3c(=O)n(CCC(=O)N4CCC(N5C(=O)c6ccccc6NC5c5ccccc5F)CC4)nc(C)c3c2C)cc1 (stereo in doubt; 3b) [listing 2 of 2 here]
[12]
  inhibition: Active
CAPAN-1 [8]
  Activity: Dose-dependent effect
[13]
  inhibition: Active
[14]
  inhibition: Active
CAPAN-1 [15]
  Activity: Active

## O=C1c2ccccc2NC(c2ccccc2F)N1c1ccccc1 (racemic)
[9]
  ΔTm: 12.7 °C

## O=C1c2ccccc2N[C@H](c2ccccc2F)N1c1ccccc1
[9]
  ΔTm: 5.75 °C

## O=C1c2ccccc2NC(c2ccccc2F)N1CCCCCN1C(=O)c2ccccc2NC1c1ccccc1F (stereo not given)
[1]
  solubility at 24 h: 8.9 µM (≈ 4.92 µg/mL)

## O=C1c2cccc3cccc(c23)N1c1ccc(-c2ccccc2)cc1
[1]
  solubility at 24 h: 0.37 µM (≈ 0.119 µg/mL)

## O=C1c2ccccc2NC(c2ccccc2F)N1CCN1CCC(N2C(=O)c3ccccc3NC2c2ccccc2F)CC1 (stereo not given)
[1]
  solubility at 24 h: 70.6 µM (≈ 41.9 µg/mL)
CAPAN-1 [16]
  Activity: 48.9%

## Cc1ccc(-n2nc3c(=O)n(CCC(=O)N4CCC(N5C(=O)c6ccccc6NC5c5ccccc5F)CC4)nc(C)c3c2C)cc1 (single isomer, unassigned; (-))
[3]
  Kd: 0.037 µM
CAPAN-1 [4]; capan-1
  IC50: 25.6 µM
